One substance from patent US9982265B2, “Inhibition of Bruton's tyrosine kinase (Btk) in the lung to treat severe lung inflammation and lung injury” (BOARD OF REGENTS, THE UNIVERSITY OF TEXAS SYSTEM, priority 2014, dated 2018) can be followed below.

The subject of data set [1] is mice with LPS/IC induced ALI. The data set can be described thus: Two hit model of LPS/IC induced acute lung injury, Lung Injury Score from pulmonary histopathology. It is filed as in vivo. The conditions noted are these: Table 5; intranasal treatment after LPS, before ICs; samples 14 h after IC; score 0 to 2; means ± SD, 4-5 animals per group. How it is done: BALB/c mice (Taconic Germantown, N.Y.) were first injected intraperitoneally (i.p.) with either LPS or saline and 8 h later received anti-KC:KC immune complexes or saline (control) by intranasal (i.n.) route. Anti-KC:KC immune complexes were prepared according to the protocol routinely used in our laboratory (28). Some mice received Btk specific siRNA intranasally. In other experiments the animals were treated i.n. with siRNA specific for Btk (see SEQ ID NOs:18-25) or MMP-9 (Invitrogen), both conjugated (T3™-MAX Conjugation Kit (Bioo Scientific Corporation, Austin, Tex.) to F(ab′)2 fragments of anti-mouse neutrophil antibody Ly-6G1A8). F(ab′)2 fragments alone or conjugated to control siRNA (SEQ ID NO's 26 and 27) (Invitrogen) served as controls of the treatment. Two or fourteen hours after i.n. administration of either immune complexes or saline, the animals were euthanized and samples collected for further evaluation. To study role of neutrophil FcγRIII receptors neutrophils were first depleted by i.p. injection of vinblastine (31) followed by adoptive transfer of cells deficient in FcγRIII receptors prepared as described below. […] Lung dysfunction was assessed by analysis of pulmonary histopathology.
Pulmonary Histopathology: Lungs were fixed in ExCellPlus (AMTS, Lodi, Calif.), embedded in paraffin, and sectioned at 5 μm. […] The images of stained sections were evaluated for the presence of alveolar exudate, infiltration of inflammatory cells, and interstitial thickening. Lung Injury Score (LIS) was assessed as described earlier (28). Most images were assessed at magnification of over 400×. […] At the minimum twenty sections from each group of mice were evaluated and 4 investigators participated in the analysis of 50 or more fields per group. According to recommendation of “An Official American Thoracic Society Workshop Report: Features and Measurements of Experimental Acute Lung Injury in Animals” (Am J Respir Cell Mol Biol 44 725-738, 2011) more than 20 high power fields were independently scored (as described above) and at least 50% of each field was occupied by lung alveoli. […]

The test system of data set [2] is Btk. Kind of data set: Expression of Btk / pBtk in alveolar neutrophils of treated ALI mice, laser confocal microscopy. It is filed as in vivo. The conditions noted are these: LPS/IC ALI; 2 h after administration of ICs; FIG. 4B. How it is done: Laser Confocal Microscopy: Purified alveolar neutrophils mounted on cytospins were incubated with the following primary antibodies: anti-mouse Btk, anti-mouse MyD88, anti-mouse MMP-9 (Santa Cruz Biotechnology), and anti-mouse pBtk (Invitrogen, Grand Island, N.Y.). Species specific antibodies conjugated with fluorescent dyes were subsequently applied to slides. Lung tissue sections, processed as routinely done in our laboratory (26, 28), were incubated with anti-mouse FcγRIII antibody (R&D Systems, Minneapolis, Minn.), or anti-mouse MMP-9 antibody (Santa Cruz Biotechnology), or with anti-neutrophil (Ly6G1A8) antibody (Bio X Cell, West Lebanon, N.H.) followed by fluorescence dye-conjugated secondary antibodies. Hoechst 33342 (Calbiochem, San Diego, Calif.) was employed to stain nuclei. Laser confocal microscopy was performed using PerkinElmer Ultra VIEW LCI confocal imaging system with Nikon TE2000-S fluorescence microscope and PlanApox60 immersion oil objective (numerical aperture [NA] 1.4) at room temperature. Ultra VIEW Imaging Suite software (version 5.5.0.4) was used for image processing.
Laser confocal microscopy was employed to confirm the effectiveness of Btk blocking in alveolar neutrophils. […] The effectiveness of Btk silencing in alveolar neutrophils was 92%. […] These experiments were performed at 2 h after administration of ICs.

“Cont siRNA: control siRNA #8 (SEQ ID NO:26/27) conjugated to F(ab′)2 fragments of Ly6G1A8 (chain 1 UUCCUCUCCACGCGCAGUACAUUUA; chain 2 AAGGAGAGGUGCGCGUCAUGUAAAU; conjugated to antibody F(ab')2 fragment, attachment not given here; one strand is listed 3' to 5')”: in data set [1], the “Lung Injury Score: Edema fluid” value was 1.337 ± 0.170, the “Lung Injury Score: Inflammatory infiltration” value is reported as 1.824 ± 0.141 and the “Lung Injury Score: Thickening of alveolar septa” value came out at 1.607 ± 0.276. Moreover, the “Btk in lung neutrophils” value in data set [2] was “normal levels”.
